We go through 3 compounds from patent US11787826B2, “Hydrocarbyl tin complex of alkynyl phosphonic acid with antitumor activity and application thereof” (priority 2020, dated 2023).

Common to all, as to type: cell-based
Experiment [1] relates to A549 (human lung cancer cells). The method, then:
(§1) MCF-7, HT-29, A549 and HepG2 cells are got from American Tissue Culture Collection, which are cultured with the culture medium containing 10% bovine fetal serum in a CO2-containing incubator at 37° C. MTT method is used to detect cell proliferation and growth inhibition. The number of experimental cells is adjusted to obtain the absorbance at 570 nm. 6 concentrations are set for the compound test solution (0.1 nmol/L˜10 μmol/L). The cells are treated for 72 hours. At least 3 parallel experiments and 3 repeated experiments are conducted for each concentration. The IC50 value is determined by statistical analysis.
(§2) Taking cisplatin as the contrast, the in vitro growth inhibitory activity of Compound 1 and Compound 2 on tumor cells are tested, including MCF7 (human breast cancer cells), HT-29 (human colon cancer cells), A549 (human lung cancer cells) and HepG2 (liver cancer cells).

In experiment [2] the test system is HepG2 (liver cancer cells). The method, then:
as §1, §2

The subject of experiment [3] is HT-29 (human colon cancer cells). On the procedure: as §1, §2
The test system of experiment [4] is MCF7 (human breast cancer cells). The method, then:
as §1, §2

Where [5] appears, read: A549 cells, MTT, 72 hours treatment.
Setting [6] is: HepG2 cells, MTT, 72 hours treatment.
The mark [7] stands for this setting: HT-29 cells, MTT, 72 hours treatment.
The mark [8] stands for this setting: MCF7 cells, MTT, 72 hours treatment.

Read-outs that look alike come from different tables or passages of the source.

In general, IC50 refers to the point on the concentration scale where inhibition reaches its midpoint. Lower therefore signals greater potency in that assay. For `N.N.[Cl][Pt][Cl]` [Cisplatin, cisplatin, reference compound], the IC50 in experiment [1] (setting [5]) is 1300 nM; in experiment [2] (setting [6]), 17000 nM; in experiment [3] (setting [7]), 35000 nM; in experiment [4] (setting [8]), 43000 nM.

Take “Tri-n-butyltin (IV) (3,5-dimethylphenyl) Acetylenyl Phosphonic Acid Derivatives [Compound 1]”: the half-maximal inhibitory concentration (IC50) in experiment [1] (setting [5]) came to 33 nM; in experiment [2] (setting [6]), 211 nM; in experiment [3] (setting [7]), 635 nM; in experiment [4] (setting [8]), 194 nM.

“tri-n-butyltin (IV) (3-Trifluoromethyl Phenyl) acetylenyl phosphonic acid derivatives [Compound 2]”: the IC50 in experiment [1] was found to be 274 nM; in experiment [2] it was 872 nM; in experiment [3] it was 962 nM; in experiment [4], 1730 nM.
